# In US8575193B2, “N-substituted tetrahydroisoquinoline/isoindoline hydroxamic acid compounds” (4SC AG, priority 2008, dated 2013):
# Key:
# [1] = tested on: nuclear HeLa extract (mixture of class I and II HDACs); test: Fluorimetric HDAC activity assay with nuclear HeLa extract; type: biochemical, human; conditions: nuclear HeLa extract inhibitory activity, substrate Ac-NH-GGK(Ac)-AMC 25 μM, 90 min at 30° C.
# Experimental: HDAC activity is isolated from nuclear HeLa extracts according to a method original described by Dignam et al. (Nucl. Acids Res. 11, pp 1475, 1983). Briefly, nuclei isolated from HeLa cells (CIL SA, Seneffe, Belgium) are resuspended in buffer C (20 mM Hepes pH 7.9, 25% v:v glycerol, 0.42M NaCl, 1.5 mM MgCl2, 0.2 mM EDTA, 0.5 mM PefaBloc and 0.5 mM DTT) and stirred for 30 min on ice. After centrifugation, the supernatant is dialysed against buffer D (40 mM Tris HCl pH 7.4, 100 mM KCl, 0.2 mM EDTA, 0.5 mM DTT and 25% v:v glycerol) for 5 h at 4° C. After dialysis and centrifugation, the supernatant is stored in aliquots at −80° C. and used for Western blot analysis as well as the enzymatic assay as described in the following.
# The HDAC enzyme activity assay is done as described by Wegener et al. (Chem. & Biol. 10, 61-68, 2003). […] After incubation at room temperature for further 40 min, fluorescence is measured using a Wallac Victor 1420 multilabel counter (Ex 355 nm, Em 460 nm) for quantification of AMC (7-amino-4-methylcoumarin) generated by trypsine cleavage of the deacetylated peptide. […] The corresponding pIC50 values of the compounds for HDAC inhibitory activity are determined from the concentration-effect curves by means of non-linear regression (Graphpad Prism software).
# rHDAC1 = biological target: T1, rHDAC1 (Homo sapiens, UniProt Q13547); test: rHDAC1 enzymatic assay (recombinant FLAG-HDAC1); type: biochemical; conditions: FLAG-HDAC1 from HEK293; 6 μM Ac-NH-GGK(Ac)-AMC, 3 h at 30° C.; read-out: rHDAC1 [pIC50] (converted)
# T1 construct: FLAG; made in house
# T1 sequence (Q13547 whole entry): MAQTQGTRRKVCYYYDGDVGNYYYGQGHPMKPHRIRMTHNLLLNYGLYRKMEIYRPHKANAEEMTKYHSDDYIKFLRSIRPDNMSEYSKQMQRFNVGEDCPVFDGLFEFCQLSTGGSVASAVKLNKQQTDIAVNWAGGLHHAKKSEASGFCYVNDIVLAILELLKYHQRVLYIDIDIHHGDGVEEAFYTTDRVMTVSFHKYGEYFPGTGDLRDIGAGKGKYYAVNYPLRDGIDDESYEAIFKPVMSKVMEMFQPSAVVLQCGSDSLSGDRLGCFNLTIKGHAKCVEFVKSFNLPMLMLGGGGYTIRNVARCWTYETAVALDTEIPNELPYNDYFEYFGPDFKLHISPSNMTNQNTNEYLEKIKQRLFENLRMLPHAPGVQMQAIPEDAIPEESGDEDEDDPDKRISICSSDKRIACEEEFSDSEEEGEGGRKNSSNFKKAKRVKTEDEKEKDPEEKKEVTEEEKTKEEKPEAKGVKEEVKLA
# Source text: (§1) Human HDAC1 and HDAC6 fused with the FLAG epitope are stably expressed in HEK293 cells while human HDAC3 and HDAC8 fused with the FLAG epitope are overexpressed in baculo-virus infected insect (Sf21) cells. To ensure stability of FLAG-HDAC3 the SMRT protein is co-expressed in the corresponding insect cells. […] FLAG-HDAC3 and FLAG-HDAC8 are also purified by M2-agarose affinity chromatography after mass cultivation of the insect cells and cell lysis.
# (§2) The HDAC enzyme activity assay is done as described by Wegener et al. (Chem. & Biol. 10, 61-68, 2003). Briefly 40 μl of a 1:100 dilution (=0.4 μl) nuclear HeLa extract (mixture of class I and II HDACs), 29 μl enzyme buffer (15 mM Tris HCl pH 8.1, 0.25 mM EDTA, 250 mM NaCl, 10% v:v glycerol) and 1 μl test compound are added to a well of a 96 well microtiter plate and reaction started by addition of 3 μl substrate (Ac-NH-GGK(Ac)-AMC; final concentration 25 μM and final volume […]). […] After incubation at room temperature for further 40 min, fluorescence is measured using a Wallac Victor 1420 multilabel counter (Ex 355 nm, Em 460 nm) for quantification of AMC (7-amino-4-methylcoumarin) generated by trypsine cleavage of the deacetylated peptide. […] The corresponding pIC50 values of the compounds for HDAC inhibitory activity are determined from the concentration-effect curves by means of non-linear regression (Graphpad Prism software).
# (§3) The HDAC1, HDAC3 and HDAC6 enzymatic assays are done with slight modifications with recombinant FLAG-HDAC1 and FLAG-HDAC6 proteins isolated from HEK293 cell lysates or recombinant FLAG-HDAC3 isolated from insect cells, respectively. The HDAC8 enzymatic assay using recombinant FLAG-HDAC8 isolated from insect cells is done with a different substrate. About 4.5 ng/well FLAG-HDAC1 and 3.1 ng/well FLAG-HDAC6 (dependent on batches and specific activity) are incubated with 6 μM or 10 μM Ac-NH-GGK(Ac)-AMC substrate, respectively, for 3 h at 30° C. About 1.7 ng/well FLAG-HDAC3 is incubated with 6 μM Ac-NH-GGK(Ac)-AMC substrate for 2 h at 30° C., while approximately 130 ng/well FLAG-HDAC8 is incubated with 50 μM Ac-RHK(Ac)K(Ac)-AMC substrate for 3 h at 30° C. Termination of the reaction and all further steps are done as described for HeLa cell nuclear extracts as a source for HDAC enzymatic activity. The corresponding pIC50 values of the compounds for HDAC1, HDAC3, HDAC6 and HDAC8 inhibitory activity are determined from the concentration-effect curves by means of non-linear regression.
# [2] = Cellular cytotoxicity assay (Alamar Blue/Resazurin), A549; type: cell-based; conditions: human, A549 cells; A549, 72 hours incubation, Resazurin; read-out: A549 Cytotoxicity [pIC50] (converted)
# Experimental: The anti-proliferative activity of the compounds as described herein, is evaluated with various solid and hematological cancer cell lines using the Alamar Blue (Resazurin) cell viability assay (O'Brien et al, Eur J Biochem 267, 5421-5426, 2000). Resazurin is reduced to the fluorescent resorufin by cellular dehydrogenase activity, correlating with viable, proliferating cells. Test compounds are dissolved as 20 mM solutions in dimethylsulfoxide (DMSO) and subsequently diluted in semi-logarithmic steps. The cancer cell lines are seeded into 96 well flat bottom plates at respective cell densities in a volume of 200 μl per well to allow continuous proliferation during the experiment. 24 hours after seeding 1 μl each of the compound dilutions is added into each well of the 96 well plate. Wells containing untreated control cells are filled with 200 μl DMEM medium containing 0.5% v:v DMSO. The cells are then incubated with the substances for 72 hours at 37° C. in a humidified atmosphere containing 5% carbon dioxide. To determine the viability of the cells, 20 μl of a Resazurin solution (Sigma; 90 mg/l) are added. After 4 hours incubation at 37° C. the fluorescence is measured at an extinction of 544 nm and an emission of 590 nm. For the calculation of the cell viability the emission value from untreated cells is set as 100% viability and the emission rates of treated cells are set in relation to the values of untreated cells. Viabilities are expressed as % values. The corresponding pIC50 values of the compounds for cytotoxic activity are determined from the concentration-effect curves by means of non-linear regression.
# rHDAC3 = biological target: T2, rHDAC3 (Homo sapiens, UniProt O15379); test: rHDAC3 enzymatic assay (recombinant FLAG-HDAC3); type: biochemical; conditions: FLAG-HDAC3 from insect cells; 6 μM Ac-NH-GGK(Ac)-AMC, 2 h at 30° C.; read-out: rHDAC3 [pIC50] (converted)
# T2 construct: FLAG; made in house; host or cells: baculovirus-infected Sf21 insect cells
# T2 sequence (O15379 whole entry): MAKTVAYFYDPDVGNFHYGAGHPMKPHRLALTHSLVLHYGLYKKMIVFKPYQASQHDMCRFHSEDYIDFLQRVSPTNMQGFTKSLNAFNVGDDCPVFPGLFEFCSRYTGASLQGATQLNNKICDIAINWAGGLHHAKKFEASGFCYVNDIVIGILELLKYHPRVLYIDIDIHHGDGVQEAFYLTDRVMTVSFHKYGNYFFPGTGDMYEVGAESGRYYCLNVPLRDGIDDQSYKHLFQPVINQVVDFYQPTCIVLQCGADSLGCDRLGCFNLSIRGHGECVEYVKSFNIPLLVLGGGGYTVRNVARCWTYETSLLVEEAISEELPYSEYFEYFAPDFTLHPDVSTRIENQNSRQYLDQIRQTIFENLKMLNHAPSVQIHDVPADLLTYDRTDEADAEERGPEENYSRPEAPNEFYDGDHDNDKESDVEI
# T2 sequence (Q9Y618 whole entry partner): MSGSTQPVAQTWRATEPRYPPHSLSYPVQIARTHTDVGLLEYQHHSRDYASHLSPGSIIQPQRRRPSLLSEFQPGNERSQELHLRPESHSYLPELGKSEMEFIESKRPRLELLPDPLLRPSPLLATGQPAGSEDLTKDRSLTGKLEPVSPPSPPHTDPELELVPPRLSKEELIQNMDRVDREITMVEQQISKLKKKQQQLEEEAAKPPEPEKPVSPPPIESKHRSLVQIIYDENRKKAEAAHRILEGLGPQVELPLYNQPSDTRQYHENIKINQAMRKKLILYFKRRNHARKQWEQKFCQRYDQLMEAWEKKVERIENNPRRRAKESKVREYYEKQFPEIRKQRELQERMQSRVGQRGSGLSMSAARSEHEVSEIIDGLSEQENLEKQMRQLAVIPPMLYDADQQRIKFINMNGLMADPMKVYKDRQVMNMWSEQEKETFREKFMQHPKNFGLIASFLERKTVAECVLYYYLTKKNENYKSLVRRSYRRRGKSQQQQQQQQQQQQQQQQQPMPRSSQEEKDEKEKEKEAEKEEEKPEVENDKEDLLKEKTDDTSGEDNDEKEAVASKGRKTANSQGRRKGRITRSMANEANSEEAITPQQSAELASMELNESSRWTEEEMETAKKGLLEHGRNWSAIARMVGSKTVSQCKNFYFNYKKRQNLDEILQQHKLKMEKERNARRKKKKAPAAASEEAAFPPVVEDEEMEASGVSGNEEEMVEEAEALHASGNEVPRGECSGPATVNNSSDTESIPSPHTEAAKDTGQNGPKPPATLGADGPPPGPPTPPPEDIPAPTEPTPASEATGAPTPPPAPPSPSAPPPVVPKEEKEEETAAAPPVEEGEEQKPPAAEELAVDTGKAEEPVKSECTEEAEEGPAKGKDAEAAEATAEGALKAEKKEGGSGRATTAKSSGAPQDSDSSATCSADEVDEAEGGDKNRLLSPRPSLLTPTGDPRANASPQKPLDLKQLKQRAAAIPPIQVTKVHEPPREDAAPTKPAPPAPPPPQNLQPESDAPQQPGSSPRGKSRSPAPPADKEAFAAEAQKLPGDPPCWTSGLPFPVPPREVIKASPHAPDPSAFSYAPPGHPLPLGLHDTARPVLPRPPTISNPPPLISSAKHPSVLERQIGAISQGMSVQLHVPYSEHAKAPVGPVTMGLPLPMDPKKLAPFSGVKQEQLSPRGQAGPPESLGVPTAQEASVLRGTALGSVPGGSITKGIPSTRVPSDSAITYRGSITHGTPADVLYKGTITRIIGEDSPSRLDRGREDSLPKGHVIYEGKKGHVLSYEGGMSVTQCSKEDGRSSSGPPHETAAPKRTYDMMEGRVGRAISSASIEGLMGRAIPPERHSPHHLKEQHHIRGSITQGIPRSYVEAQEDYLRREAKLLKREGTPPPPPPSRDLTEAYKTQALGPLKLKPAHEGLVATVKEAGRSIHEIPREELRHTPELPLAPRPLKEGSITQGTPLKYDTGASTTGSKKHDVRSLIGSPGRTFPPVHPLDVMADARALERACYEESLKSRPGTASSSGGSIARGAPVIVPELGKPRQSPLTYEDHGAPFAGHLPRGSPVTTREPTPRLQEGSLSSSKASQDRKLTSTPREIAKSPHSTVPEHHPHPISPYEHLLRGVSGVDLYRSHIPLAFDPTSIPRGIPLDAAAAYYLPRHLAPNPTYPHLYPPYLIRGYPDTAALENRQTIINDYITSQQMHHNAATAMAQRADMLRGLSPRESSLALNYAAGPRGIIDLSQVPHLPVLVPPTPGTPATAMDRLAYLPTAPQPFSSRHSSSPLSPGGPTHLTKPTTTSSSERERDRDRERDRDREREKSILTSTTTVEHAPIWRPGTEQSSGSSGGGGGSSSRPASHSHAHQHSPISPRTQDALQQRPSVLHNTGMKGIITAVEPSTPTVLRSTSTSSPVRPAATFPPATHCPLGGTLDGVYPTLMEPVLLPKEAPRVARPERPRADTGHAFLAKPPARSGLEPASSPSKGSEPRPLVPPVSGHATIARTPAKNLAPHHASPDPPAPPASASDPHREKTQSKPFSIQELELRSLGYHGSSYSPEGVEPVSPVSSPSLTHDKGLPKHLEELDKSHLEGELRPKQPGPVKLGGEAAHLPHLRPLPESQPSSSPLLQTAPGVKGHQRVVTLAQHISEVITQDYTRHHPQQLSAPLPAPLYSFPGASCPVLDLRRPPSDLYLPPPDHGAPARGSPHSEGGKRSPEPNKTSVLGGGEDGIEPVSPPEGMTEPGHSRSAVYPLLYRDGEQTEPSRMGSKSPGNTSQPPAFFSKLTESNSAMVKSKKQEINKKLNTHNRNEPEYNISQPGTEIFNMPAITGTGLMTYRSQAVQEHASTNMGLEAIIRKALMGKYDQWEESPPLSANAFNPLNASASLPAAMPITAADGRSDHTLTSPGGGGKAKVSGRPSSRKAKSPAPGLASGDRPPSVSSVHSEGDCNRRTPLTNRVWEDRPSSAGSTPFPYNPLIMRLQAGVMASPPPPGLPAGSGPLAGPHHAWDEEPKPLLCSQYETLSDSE
# Source text: as §1, §2, §3
HeLa nuclear extract [pIC50] ([1]; listed as Ex. 11),IC50 (rHDAC1),IC50 (rHDAC3),HeLa nuclear extract [pIC50] ([1]; listed as Ex. 15),melting point,SMILES,IC50 at 72 h [2]
4.22,10 to 100 µM,10 to 100 µM,,,"COCCOCC(=O)N1CCc2cc(C(=O)NO)ccc2C1 [Example 11, N-Hydroxy-2-[(2-methoxyethoxy)acetyl]-1,2,3,4-tetrahydroisoquinoline-6-carboxamide]",> 100 µM
,0.1 to 10 µM,1 to 10 µM,6.10,156 °C,"COc1ccc2[nH]c(C(=O)N3CCc4cc(C(=O)NO)ccc4C3)cc2c1 [Example 15, N-Hydroxy-2-[(5-methoxy-1H-indol-2-yl)carbonyl]-1,2,3,4-tetrahydroisoquinoline-6-carboxamide]",1 to 100 µM
